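Compound exposure: 48 hours, 5 concentrations, 96-well plates. At the GI50, growth is halved.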 Calls of active or inactive are those of the source. Rule as the data show it: active = GI50 up to about 1.1 µM and inactive = higher.
Assays:
Assay in all cases: NCI anticancer screen, dose series, 48 h
[1] = test system: ACHN
[2] = test system: BT-549
[3] = test system: CAKI-1
[4] = test system: COLO 205
[5] = test system: EKVX
[6] = test system: HCT-116
[7] = test system: HOP-92
[8] = test system: K562
[9] = test system: LOX IMVI
[10] = test system: MDA-N
[11] = test system: MOLT-4
[12] = test system: NCI-H23
[13] = test system: OVCAR-4
[14] = test system: SF-539
[15] = test system: SK-MEL-28
[16] = test system: SK-OV-3
[17] = test system: SN12C
[18] = test system: SW-620
[19] = test system: TK-10
[20] = test system: UACC-62

Compound	GI50 [1]	GI50 [2]	GI50 [3]	GI50 [4]	GI50 [5]	GI50 [6]	GI50 [7]	GI50 [8]	GI50 [9]	GI50 [10]	GI50 [11]	GI50 [12]	GI50 [13]	GI50 [14]	GI50 [15]	GI50 [16]	GI50 [17]	GI50 [18]	GI50 [19]	GI50 [20]
Cc1cc(C(C)(C)C)cc(CNC2CCCCC2)c1O	17.1 µM (inactive)	16.3 µM (inactive)	16.4 µM (inactive)	17.3 µM (inactive)	15.7 µM (inactive)	15.4 µM (inactive)	15.5 µM (inactive)	21.7 µM (inactive)	16 µM (inactive)	16.3 µM (inactive)	31.3 µM (inactive)	15.4 µM (inactive)	19.5 µM (inactive)	18.2 µM (inactive)	16.7 µM (inactive)	20 µM (inactive)	15.8 µM (inactive)	19.9 µM (inactive)	16.1 µM (inactive)	16 µM (inactive)
CCN(CC(=O)O)CC(=O)O	> 100 µM (inactive)	> 100 µM (inactive)	> 100 µM (inactive)	> 100 µM (inactive)	> 100 µM (inactive)	> 100 µM (inactive)	> 100 µM (inactive)	> 100 µM (inactive)	> 100 µM (inactive)	> 100 µM (inactive)	> 100 µM (inactive)	> 100 µM (inactive)	> 100 µM (inactive)	> 100 µM (inactive)	> 100 µM (inactive)	> 100 µM (inactive)	> 100 µM (inactive)	> 100 µM (inactive)	> 100 µM (inactive)	> 100 µM (inactive)
O=C(c1ccc(Cl)cc1)N(Cc1cccnc1)C(=S)N(Cc1cccnc1)C(=O)c1ccc(Cl)cc1	36.1 µM (inactive)	23.7 µM (inactive)	42.4 µM (inactive)	20.5 µM (inactive)	50.8 µM (inactive)	27.1 µM (inactive)	34 µM (inactive)	22.9 µM (inactive)	22 µM (inactive)	22.2 µM (inactive)	16.1 µM (inactive)	36.1 µM (inactive)	23.6 µM (inactive)	23 µM (inactive)	37.8 µM (inactive)	> 100 µM (inactive)	18.6 µM (inactive)	40.5 µM (inactive)	53 µM (inactive)	24.3 µM (inactive)
C=C1C(=O)OC2/C=C(/CO)C3(O)CC(O)C(C)(CC(OC(=O)/C(C)=C/C)C12)O3 (stereo not given)	6.82 µM (inactive)	4.52 µM (inactive)	4.33 µM (inactive)	4.73 µM (inactive)	18.8 µM (inactive)	6.73 µM (inactive)	9.91 µM (inactive)	4.47 µM (inactive)	11 µM (inactive)	10.2 µM (inactive)	2.47 µM (inactive)	13.6 µM (inactive)	22.3 µM (inactive)	23.9 µM (inactive)	7.64 µM (inactive)	21.4 µM (inactive)	15.7 µM (inactive)	3.33 µM (inactive)	11.9 µM (inactive)	6.62 µM (inactive)
CCCCCCCCCCCCCCCCSS(C)(=O)=O	13.4 µM (inactive)	4.42 µM (inactive)	10.1 µM (inactive)	19.2 µM (inactive)	> 91.2 µM (inactive)	10.6 µM (inactive)	15.5 µM (inactive)	9.64 µM (inactive)	3.73 µM (inactive)	14.8 µM (inactive)	1.39 µM (inactive)	42.8 µM (inactive)	18.7 µM (inactive)	17.9 µM (inactive)	11.9 µM (inactive)	97.9 µM (inactive)	37.8 µM (inactive)	5.21 µM (inactive)	24.1 µM (inactive)	22.4 µM (inactive)
CCOc1nc2c(N3CCCC3)nc(N3CCNCC3)nc2nc1NCc1ccccc1	1.58 µM (inactive)	1.61 µM (inactive)	1.85 µM (inactive)	0.574 µM (active)	2.1 µM (inactive)	0.923 µM (active)	1.13 µM (inactive)	1.2 µM (inactive)	1.36 µM (inactive)	1.11 µM (active)	1.09 µM (active)	1.51 µM (inactive)	2.42 µM (inactive)	1.52 µM (inactive)	1.79 µM (inactive)	1.57 µM (inactive)	1.5 µM (inactive)	1.73 µM (inactive)	1.9 µM (inactive)	1.83 µM (inactive)
FC(F)(F)c1ccc2c(-c3cc[nH]c3)ccnc2c1	31.8 µM (inactive)	22.6 µM (inactive)	31.4 µM (inactive)	23.6 µM (inactive)	33 µM (inactive)	32.5 µM (inactive)	52.4 µM (inactive)	30 µM (inactive)	19.4 µM (inactive)	32.3 µM (inactive)	19.4 µM (inactive)	28 µM (inactive)	53.2 µM (inactive)	37.8 µM (inactive)	35.6 µM (inactive)	> 100 µM (inactive)	41 µM (inactive)	36.1 µM (inactive)	28.6 µM (inactive)	> 100 µM (inactive)
CCCCCCCCC/C=C/C=C/C(=O)NCC(=O)NC1C(O)C(O)C(Nc2ncnc3[nH]cnc23)OC1C(O)CO (stereo not given)	0.00953 µM (active)	0.023 µM (active)	0.00692 µM (active)	0.001 µM (active)	0.126 µM (active)	0.00323 µM (active)	0.00468 µM (active)	0.063 µM (active)	0.00234 µM (active)	0.0306 µM (active)	0.158 µM (active)	0.00869 µM (active)	0.00115 µM (active)	0.00448 µM (active)	0.0695 µM (active)	0.001 µM (active)	0.0136 µM (active)	0.00156 µM (active)	0.00208 µM (active)	0.00507 µM (active)
COC(C(=O)C(O)C(C)O)C1CC2C=C3C=C(OC4CC(OC5CC(O)C(OC)C(C)O5)C(OC(C)=O)C(C)O4)C(C)C(O)=C3C(O)=C2C(=O)C1OC1CC(OC2CC(OC3CC(C)(O)C(OC(=O)C(C)C)C(C)O3)C(O)C(C)O2)C(O)C(C)O1 (stereo not given)	< 0.01 µM (active)	< 0.01 µM (active)	< 0.01 µM (active)	< 0.01 µM (active)	< 0.01 µM (active)	< 0.01 µM (active)	< 0.01 µM (active)	< 0.01 µM (active)	< 0.01 µM (active)	< 0.01 µM (active)	< 0.01 µM (active)	< 0.01 µM (active)	< 0.01 µM (active)	< 0.01 µM (active)	< 0.01 µM (active)	< 0.01 µM (active)	< 0.01 µM (active)	< 0.01 µM (active)	< 0.01 µM (active)	< 0.01 µM (active)
Cc1c[n+]([O-])c2ccccc2[n+]1[O-]	> 100 µM (inactive)	> 100 µM (inactive)	> 100 µM (inactive)	> 100 µM (inactive)	> 100 µM (inactive)	> 100 µM (inactive)	> 100 µM (inactive)	> 100 µM (inactive)	> 100 µM (inactive)	> 100 µM (inactive)	> 100 µM (inactive)	> 100 µM (inactive)	> 100 µM (inactive)	> 100 µM (inactive)	> 100 µM (inactive)	> 100 µM (inactive)	> 100 µM (inactive)	> 100 µM (inactive)	> 100 µM (inactive)	> 100 µM (inactive)
Cc1ccc(S(=O)(=O)N2c3ccccc3[C@H]3CCC=C[C@H]32)cc1	19.3 µM (inactive)	8.91 µM (inactive)	12.1 µM (inactive)	3.94 µM (inactive)	12.1 µM (inactive)	5.86 µM (inactive)	3.16 µM (inactive)	3.38 µM (inactive)	10.4 µM (inactive)	3.06 µM (inactive)	4.81 µM (inactive)	8.28 µM (inactive)	17.3 µM (inactive)	9.42 µM (inactive)	10.9 µM (inactive)	2.54 µM (inactive)	14.5 µM (inactive)	4.51 µM (inactive)	13.7 µM (inactive)	4.82 µM (inactive)
COc1cc(Oc2c(C)c(Cl)c(OC)c(Cl)c2OC)c2c(c1Cl)COC2=O	12.9 µM (inactive)	43.6 µM (inactive)	10.4 µM (inactive)	20.9 µM (inactive)	22.3 µM (inactive)	6.34 µM (inactive)	54 µM (inactive)	2.32 µM (inactive)	17 µM (inactive)	14.3 µM (inactive)	10 µM (inactive)	18.6 µM (inactive)	10.8 µM (inactive)	31.5 µM (inactive)	62.2 µM (inactive)	41.5 µM (inactive)	17.4 µM (inactive)	52 µM (inactive)	71.3 µM (inactive)	33.7 µM (inactive)
O=C1C2=C(CC3=C(C2)CS(=O)(=O)C3)C(=O)C2=C1CC1=C(C2)CS(=O)(=O)C1	36.3 µM (inactive)	18.5 µM (inactive)	36 µM (inactive)	13 µM (inactive)	33.2 µM (inactive)	11.7 µM (inactive)	> 46.7 µM (inactive)	10.6 µM (inactive)	14.3 µM (inactive)	10.3 µM (inactive)	23.9 µM (inactive)	23.9 µM (inactive)	10.9 µM (inactive)	36.3 µM (inactive)	> 43.1 µM (inactive)	38.5 µM (inactive)	15.3 µM (inactive)	18 µM (inactive)	48.9 µM (inactive)	15.8 µM (inactive)
CN(C)CCN1C(=O)CC[C@@]2(C)C1=CC[C@@H]1[C@@H]2CC[C@@]2(C)[C@H]1CC[C@]2(C)O	> 100 µM (inactive)	> 100 µM (inactive)	> 100 µM (inactive)	> 100 µM (inactive)	> 100 µM (inactive)	71.6 µM (inactive)	> 100 µM (inactive)	> 100 µM (inactive)	> 100 µM (inactive)	> 100 µM (inactive)	> 100 µM (inactive)	> 100 µM (inactive)	> 100 µM (inactive)	> 100 µM (inactive)	> 100 µM (inactive)	> 100 µM (inactive)	> 100 µM (inactive)	> 100 µM (inactive)	> 100 µM (inactive)	> 100 µM (inactive)

Reference: ChEMBL document CHEMBL1201862, “PubChem BioAssay data set” (2004)
